Experimental data: the supplement of paper PMC4932681

Experiments:
BT-474 Tam1 [1] = experiment: drug sensitivity score (DSS) (DSS (dimensionless)); higher = more sensitive; extreme values may be limits of the assay; conditions: 4-OH-tamoxifen in medium 1 µM; 72 h
Method in brief: (§1)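 Breast cancer cell lines and their resistant derivatives were seeded into 384-well plates holding FO2Baq library drugs at five concentrations spanning a 10 000-fold range. Resistant lines were in medium with 1 μM of the selecting drug. Cells were incubated 72 h at 37 °C, and CellTiter-Glo viability was read on a PHERAstar and normalised to vehicle-only and positive controls. Drug sensitivity score, relative IC50 (curve midpoint) and top-dose inhibition came from logistic dose–response fits (Breeze pipeline).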

ZR-75-1 Tam1 [2] = experiment: as above; conditions: 4-OH-tamoxifen in medium 1 µM; 72 h
Method in brief: as §1

ZR-75-1 Tam2 [3] = experiment: as above; conditions: 4-OH-tamoxifen in medium 1 µM; 72 h
Method in brief: as §1

MCF-7 [4] = experiment: as above; conditions: 72 h
Method in brief: as §1

BT-474 Tam2 [5] = experiment: as above; conditions: 4-OH-tamoxifen in medium 1 µM; 72 h
Method in brief: as §1

T-47D [6] = experiment: as above; conditions: 72 h
Method in brief: as §1

MCF-7 Tam1 [7] = experiment: as above; conditions: 4-OH-tamoxifen in medium 1 µM; 72 h
Method in brief: as §1

T-47D Tam1 [8] = experiment: as above; conditions: 4-OH-tamoxifen in medium 1 µM; 72 h
Method in brief: as §1

BT-474 [9] = experiment: as above; conditions: 72 h
Method in brief: as §1

ZR-75-1 [10] = experiment: as above; conditions: 72 h
Method in brief: as §1

T-47D Tam2 [11] = experiment: as above; conditions: 4-OH-tamoxifen in medium 1 µM; 72 h
Method in brief: as §1

BT-474 Tam1 [12] = experiment: relative IC50 (midpoint of fitted logistic curve, plateau may be below 50% inhibition; CellTiter-Glo viability); higher = less potent; conditions: 4-OH-tamoxifen in medium 1 µM; 72 h
Method in brief: as §1

ZR-75-1 Tam1 [13] = experiment: as above; conditions: 4-OH-tamoxifen in medium 1 µM; 72 h
Method in brief: as §1

ZR-75-1 Tam2 [14] = experiment: as above; conditions: 4-OH-tamoxifen in medium 1 µM; 72 h
Method in brief: as §1

MCF-7 [15] = experiment: as above; conditions: 72 h
Method in brief: as §1

BT-474 Tam2 [16] = experiment: as above; conditions: 4-OH-tamoxifen in medium 1 µM; 72 h
Method in brief: as §1

T-47D [17] = experiment: as above; conditions: 72 h
Method in brief: as §1

MCF-7 Tam1 [18] = experiment: as above; conditions: 4-OH-tamoxifen in medium 1 µM; 72 h
Method in brief: as §1

T-47D Tam1 [19] = experiment: as above; conditions: 4-OH-tamoxifen in medium 1 µM; 72 h
Method in brief: as §1

BT-474 [20] = experiment: as above; conditions: 72 h
Method in brief: as §1

ZR-75-1 [21] = experiment: as above; conditions: 72 h
Method in brief: as §1

T-47D Tam2 [22] = experiment: as above; conditions: 4-OH-tamoxifen in medium 1 µM; 72 h
Method in brief: as §1

SMILES	drug sensitivity score (BT-474 Tam1 [1])	drug sensitivity score (ZR-75-1 Tam1 [2])	drug sensitivity score (ZR-75-1 Tam2 [3])	drug sensitivity score (MCF-7 [4]; 4-OH-tamoxifen in medium 0 µM)	drug sensitivity score (MCF-7 [4]; 4-OH-tamoxifen in medium 1 µM)	drug sensitivity score (BT-474 Tam2 [5])	drug sensitivity score (T-47D [6]; 4-OH-tamoxifen in medium 0 µM)	drug sensitivity score (T-47D [6]; 4-OH-tamoxifen in medium 1 µM)	drug sensitivity score (MCF-7 Tam1 [7])	drug sensitivity score (T-47D Tam1 [8])	drug sensitivity score (BT-474 [9]; 4-OH-tamoxifen in medium 0 µM)	drug sensitivity score (BT-474 [9]; 4-OH-tamoxifen in medium 1 µM)	drug sensitivity score (ZR-75-1 [10]; 4-OH-tamoxifen in medium 0 µM)	drug sensitivity score (ZR-75-1 [10]; 4-OH-tamoxifen in medium 1 µM)	drug sensitivity score (T-47D Tam2 [11])	relative IC50 (BT-474 Tam1 [12]) [nM]	relative IC50 (ZR-75-1 Tam1 [13]) [nM]	relative IC50 (ZR-75-1 Tam2 [14]) [nM]	relative IC50 (MCF-7 [15]; 4-OH-tamoxifen in medium 0 µM) [nM]	relative IC50 (MCF-7 [15]; 4-OH-tamoxifen in medium 1 µM) [nM]	relative IC50 (BT-474 Tam2 [16]) [nM]	relative IC50 (T-47D [17]; 4-OH-tamoxifen in medium 0 µM) [nM]	relative IC50 (T-47D [17]; 4-OH-tamoxifen in medium 1 µM) [nM]	relative IC50 (MCF-7 Tam1 [18]) [nM]	relative IC50 (T-47D Tam1 [19]) [nM]	relative IC50 (BT-474 [20]; 4-OH-tamoxifen in medium 0 µM) [nM]	relative IC50 (BT-474 [20]; 4-OH-tamoxifen in medium 1 µM) [nM]	relative IC50 (ZR-75-1 [21]; 4-OH-tamoxifen in medium 0 µM) [nM]	relative IC50 (ZR-75-1 [21]; 4-OH-tamoxifen in medium 1 µM) [nM]	relative IC50 (T-47D Tam2 [22]) [nM]
C[C@@H](Oc1cc(-c2cnn(C3CCNCC3)c2)cnc1N)c1c(Cl)ccc(F)c1Cl [Crizotinib]	0	0	0	0	0	0	0	0	0	0	0	0	0	0	0	> 1000	> 1000	> 1000	> 1000	> 1000	> 1000	> 1000	> 1000	> 1000	> 1000	> 1000	> 1000	> 1000	> 1000	> 1000
COc1ccc(-c2ccc3c(N4CCOC[C@@H]4C)nc(N4CCOC[C@@H]4C)nc3n2)cc1CO [AZD8055]	12.7	16.2	19.8	20.2	11.5	8.38	16.7	8.08	6.06	17.1	11.8	13.6	18.4	17.4	10.2	378	38.9	18.5	48.4	130	399	61.1	423	147	39.9	60.7	267	31.3	12.3	227
Nc1cccc2c1CN(C1CCC(=O)NC1=O)C2=O (configuration not stated) [Lenalidomide]	0	0	0	0	1.39	0	0	0	0	0	0	0	0	0	0	> 10000	> 10000	> 10000	> 10000	–	> 10000	> 10000	> 10000	> 10000	> 10000	> 10000	> 10000	> 10000	> 10000	> 10000
CN[C@@H]1C[C@H]2O[C@@](C)([C@@H]1OC)n1c3ccccc3c3c4c(c5c6ccccc6n2c5c31)C(=O)N[C@H]4O [UCN-01]	13.4	8.97	9.41	17.1	15.8	15.6	9.64	8.4	14.3	10.2	10.8	13.3	9.37	6.62	8.25	588	615	686	198	355	409	598	864	486	736	467	525	437	1010	855
COc1ccc(-c2cc3c(C)nc(N)nc3n([C@H]3CC[C@H](OCCO)CC3)c2=O)cn1	22.7	16.3	24	20.2	16.4	19.5	18.6	15.4	13.2	18.1	16.5	24.3	19	17	14.9	121	208	52.5	77.5	173	175	184	332	194	188	297	76.6	102	102	305
CO[C@H](C(=O)[C@@H](O)[C@@H](C)O)[C@@H]1Cc2cc3cc(O[C@H]4C[C@@H](O[C@@H]5C[C@@H](O)[C@H](O)[C@@H](C)O5)[C@H](O)[C@@H](C)O4)c(C)c(O)c3c(O)c2C(=O)[C@H]1O[C@H]1C[C@@H](O[C@@H]2C[C@@H](O)[C@@H](O[C@@H]3C[C@](C)(O)[C@H](O)[C@@H](C)O3)[C@@H](C)O2)[C@H](O)[C@@H](C)O1 [Plicamycin  (Mithramycin A)]	13.7	22.1	23.6	14.9	20.1	14.9	18.4	13.2	14.1	22	11.9	14.3	21.5	19	17.4	632	58.6	64.5	401	150	495	84.6	110	318	36.3	357	542	45.3	66.5	57
O=C1CCC(N2C(=O)c3ccccc3C2=O)C(=O)N1 (configuration not stated) [Thalidomide]	0	0	0	0	0	0	0	0	0	0	0	0	0	0.0754	0	> 10000	> 10000	> 10000	> 10000	> 10000	> 10000	> 10000	–	> 10000	> 10000	> 10000	> 10000	> 10000	–	> 10000
N.N.[Cl][Pt][Cl] [Cisplatin]	0	0	0	0	0	0	0	0	0	0	0	0	0	0	0	> 10000	> 10000	> 10000	> 10000	> 10000	> 10000	> 10000	> 10000	> 10000	> 10000	> 10000	> 10000	> 10000	> 10000	> 10000
COc1c2occc2cc2ccc(=O)oc12 [Methoxsalen]	0	0	0	0	0	0	0	0	0	0	0	0	0	0	0	> 10000	> 10000	> 10000	> 10000	> 10000	> 10000	> 10000	> 10000	> 10000	> 10000	> 10000	> 10000	> 10000	> 10000	> 10000
CN1CCN(c2ccc3nc(-c4c(N)c5c(F)cccc5[nH]c4=O)[nH]c3c2)CC1 [Dovitinib (CHIR-258)]	0	0	0	0	0	0	0	0	0	0	0	0	0	0	0	> 10000	> 10000	> 10000	> 10000	> 10000	> 10000	> 10000	> 10000	> 10000	> 10000	> 10000	> 10000	> 10000	> 10000	> 10000
CC(C)C[C@H](NC(=O)[C@H](CCc1ccccc1)NC(=O)CN1CCOCC1)C(=O)N[C@@H](Cc1ccccc1)C(=O)N[C@@H](CC(C)C)C(=O)[C@@]1(C)CO1 [Carfilzomib]	27.9	12.8	11.8	17.9	21	20.8	23.1	25.8	12.4	22.7	14.6	28.9	14	16.4	17.1	4.59	47.1	51.9	19.7	15.8	15.3	8.82	2.82	74.6	11.4	25.6	3.67	31.7	24.7	33.4
O=C(Nc1cccnc1)N1CCC(Cc2cccc(Oc3ccc(C(F)(F)F)cn3)c2)CC1 [PF-3845]	23.7	18.7	18.8	16.5	19.2	20.4	11.6	10.7	9.98	17.5	18.1	21.2	10.2	19.7	13.7	102	218	233	161	140	187	278	3620	1970	295	245	157	725	179	429
CC(C)(C#N)c1cc(Cn2cncn2)cc(C(C)(C)C#N)c1 [Anastrozole]	0	0	0	0	0	0	0	0	0	0	0	0	0	0	0	> 10000	> 10000	> 10000	> 10000	> 10000	> 10000	> 10000	> 10000	> 10000	> 10000	> 10000	> 10000	> 10000	> 10000	> 10000
Cc1ccc(F)c(NC(=O)Nc2ccc(-c3cccc4[nH]nc(N)c34)cc2)c1 [Linifanib (ABT-869)]	0	0	0	0	0	0	0	0	0	0	0	0	0	0	0	> 1000	> 1000	> 1000	> 1000	> 1000	> 1000	> 1000	> 1000	> 1000	> 1000	> 1000	> 1000	> 1000	> 1000	> 1000
